Consider 12 molecules from US12059422B2 (MEI Pharma, Inc., priority 2011, dated 2024).

The target of the test is T1, PI3K gamma (Homo sapiens, UniProt P48736).
T1 construct: purchased Invitrogen Corp., Carlsbad, CA, USA
Put plainly: Luciferase-based luminescence assay (ADP Glo), PI3K gamma enzymatic activity. The settings on record: inhibition of enzymatic activity, 25 μM ATP, read-out: IC50 p110γ. The format is biochemical. Put shortly:
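Final enzyme 4.8 nM PI3K beta or 7.6 nM PI3K gamma, with 50 μM PIP2 and 25 μM ATP, 1 h in HEPES pH 7.5 buffer with MgCl2, EGTA, NaCl, CHAPS and DTT. ADP formed measured by ADP-Glo luminescence; IC50 from 10-point curve fits.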

The structures appear in SMILES notation.

T1 sequence (P48736 whole entry, species assumed): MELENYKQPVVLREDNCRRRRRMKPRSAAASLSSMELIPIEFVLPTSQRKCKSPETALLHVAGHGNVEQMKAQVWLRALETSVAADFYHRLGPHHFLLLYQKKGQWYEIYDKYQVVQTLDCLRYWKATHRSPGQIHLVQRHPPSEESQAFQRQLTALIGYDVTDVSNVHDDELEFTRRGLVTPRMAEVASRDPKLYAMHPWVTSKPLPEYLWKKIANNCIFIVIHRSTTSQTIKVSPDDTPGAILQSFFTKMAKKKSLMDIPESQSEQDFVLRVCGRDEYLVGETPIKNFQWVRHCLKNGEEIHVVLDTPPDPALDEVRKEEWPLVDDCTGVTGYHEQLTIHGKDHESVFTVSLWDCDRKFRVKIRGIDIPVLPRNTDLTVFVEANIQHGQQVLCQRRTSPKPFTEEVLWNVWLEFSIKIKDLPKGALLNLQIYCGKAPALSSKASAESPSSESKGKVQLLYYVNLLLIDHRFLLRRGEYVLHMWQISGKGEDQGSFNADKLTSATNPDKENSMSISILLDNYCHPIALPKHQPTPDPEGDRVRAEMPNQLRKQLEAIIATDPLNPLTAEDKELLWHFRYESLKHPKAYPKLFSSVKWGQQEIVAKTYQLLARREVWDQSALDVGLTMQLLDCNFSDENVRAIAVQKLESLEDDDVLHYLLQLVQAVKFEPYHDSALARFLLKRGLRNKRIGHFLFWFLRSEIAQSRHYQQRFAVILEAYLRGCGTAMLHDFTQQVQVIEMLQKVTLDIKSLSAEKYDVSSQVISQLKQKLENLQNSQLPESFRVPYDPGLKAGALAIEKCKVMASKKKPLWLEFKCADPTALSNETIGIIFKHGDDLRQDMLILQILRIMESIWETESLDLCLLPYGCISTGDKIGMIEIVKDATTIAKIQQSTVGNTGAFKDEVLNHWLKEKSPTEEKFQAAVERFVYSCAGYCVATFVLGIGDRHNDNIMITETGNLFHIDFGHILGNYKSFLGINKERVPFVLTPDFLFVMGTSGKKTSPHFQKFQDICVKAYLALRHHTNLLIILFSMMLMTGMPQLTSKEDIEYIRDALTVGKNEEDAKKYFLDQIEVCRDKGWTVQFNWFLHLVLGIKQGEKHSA

A word on the IC50: it is the concentration that gives 50% inhibition. In the case of `CC(C)(Cc1ccccc1-c1cncnc1)Nc1nc(N2CCOCC2)nc(-n2c(C(F)F)nc3ccccc32)n1` [Compound A63, 4-(2-(difluoromethyl)-1H-benzo[d]imidazol-1-yl)-N-(2-methyl-1-(2-(pyrimidin-5-yl)phenyl)propan-2-yl)-6-morpholino-1,3,5-triazin-2-amine], the IC50 fell in the range of 200 to 500 nM. The figure for `CN1CCN(c2cc(-c3ccccc3CC(C)(C)Nc3nc(N4CCOCC4)nc(-n4c(C(F)F)nc5ccccc54)n3)ccn2)CC1` [Compound A64, 4-(2-(difluoromethyl)-1H-benzo[d]imidazol-1-yl)-N-(2-methyl-1-(2-(2-(4-methylpiperazin-1-yl)pyridin-4-yl)phenyl)propan-2-yl)-6-morpholino-1,3,5-triazin-2-amine] is > 500 nM; for `CC(C)(Cc1ccccc1-c1cccc(CN2CCOCC2)c1)Nc1nc(N2CCOCC2)nc(-n2c(C(F)F)nc3ccccc32)n1` [Compound A65, 4-(2-(difluoromethyl)-1H-benzo[d]imidazol-1-yl)-N-(2-methyl-1-(3′-(morpholinomethyl)biphenyl-2-yl)propan-2-yl)-6-morpholino-1,3,5-triazin-2-amine] it is 100 to 200 nM; for `COc1cccc(-c2ccccc2CC(C)(C)Nc2nc(N3CCOCC3)nc(-n3c(C(F)F)nc4ccccc43)n2)c1` [Compound A66, 4-(2-(difluoromethyl)-1H-benzo[d]imidazol-1-yl)-N-(1-(3′-methoxybiphenyl-2-yl)-2-methylpropan-2-yl)-6-morpholino-1,3,5-triazin-2-amine] it is > 500 nM. The figure for `COc1ccc(-c2ccccc2CC(C)(C)Nc2nc(N3CCOCC3)nc(-n3c(C(F)F)nc4ccccc43)n2)cc1` [Compound A67, 4-(2-(difluoromethyl)-1H-benzo[d]imidazol-1-yl)-N-(1-(4′-methoxybiphenyl-2-yl)-2-methylpropan-2-yl)-6-morpholino-1,3,5-triazin-2-amine] is > 500 nM. The figure for `CC(C)(Cc1ccccc1C1CCNCC1)Nc1nc(N2CCOCC2)nc(-n2c(C(F)F)nc3ccccc32)n1` [Compound A68, 4-(2-(difluoromethyl)-1H-benzo[d]imidazol-1-yl)-N-(2-methyl-1-(2-(piperidin-4-yl)phenyl)propan-2-yl)-6-morpholino-1,3,5-triazin-2-amine] is > 500 nM; for `CCN1CCC(c2ccccc2CC(C)(C)Nc2nc(N3CCOCC3)nc(-n3c(C(F)F)nc4ccccc43)n2)CC1` [Compound A70, 4-(2-(difluoromethyl)-1H-benzo[d]imidazol-1-yl)-N-(1-(2-(1-ethylpiperidin-4-yl)phenyl)-2-methylpropan-2-yl)-6-morpholino-1,3,5-triazin-2-amine] it is > 500 nM. For `CC(C)N1CCC(c2ccccc2CC(C)(C)Nc2nc(N3CCOCC3)nc(-n3c(C(F)F)nc4ccccc43)n2)CC1` [Compound A71, 4-(2-(difluoromethyl)-1H-benzo[d]imidazol-1-yl)-N-(1-(2-(1-isopropylpiperidin-4-yl)phenyl)-2-methylpropan-2-yl)-6-morpholino-1,3,5-triazin-2-amine], the IC50 is > 500 nM.

On to `CC(=O)N1CCC(c2ccccc2CC(C)(C)Nc2nc(N3CCOCC3)nc(-n3c(C(F)F)nc4ccccc43)n2)CC1` [Compound A72, 4-(2-(difluoromethyl)-1H-benzo[d]imidazol-1-yl)-N-(2-methyl-1-(2-(1-acetylpiperidin-4-yl)phenyl)propan-2-yl)-6-morpholino-1,3,5-triazin-2-amine], for which the IC50 was ≤ 100 nM. The figure for `CC(C)(Cc1ccccc1C1CCN(S(C)(=O)=O)CC1)Nc1nc(N2CCOCC2)nc(-n2c(C(F)F)nc3ccccc32)n1` [Compound A73, 4-(2-(difluoromethyl)-1H-benzo[d]imidazol-1-yl)-N-(2-methyl-1-(2-(1-(methylsulfonyl)piperidin-4-yl)phenyl)propan-2-yl)-6-morpholino-1,3,5-triazin-2-amine] is 100 to 200 nM. `CC(C)(Cc1ccccc1C1CCNC1)Nc1nc(N2CCOCC2)nc(-n2c(C(F)F)nc3ccccc32)n1` (stereo not drawn) [Compound A74, 4-(2-(difluoromethyl)-1H-benzo[d]imidazol-1-yl)-N-(2-methyl-1-(2-(pyrrolidin-3-yl)phenyl)propan-2-yl)-6-morpholino-1,3,5-triazin-2-amine]: the IC50 was > 500 nM. The figure for `CN(C)CCCc1ccccc1CC(C)(C)Nc1nc(N2CCOCC2)nc(-n2c(C(F)F)nc3ccccc32)n1` [Compound A76, 4-(2-(difluoromethyl)-1H-benzo[d]imidazol-1-yl)-N-(1-(2-(3-(dimethylamino)propyl)phenyl)-2-methylpropan-2-yl)-6-morpholino-1,3,5-triazin-2-amine] is > 500 nM.
